Assay results: patent US20160015743A1, “METHODS FOR TREATING CANCER” (priority 2013, published 2016)
Where a SMILES comes first, the peptide text is derived from it. The star is where a group is joined. Cbz = O=C(OCc1ccccc1)*

Tests used:
cyclin D1 [1] = assay: Cyclin D1 protein levels by western blotting in transfected HEK293 cells with or without MG132; format: cell-based, human
Description: Ubc9 (a), SUMO1 (b), SUMO2 (c), SUMO3 (d) together with SENP1 constructs was co-transfected with cyclin D1 into HEK293 cells in the absence or presence of proteasome inhibitor MG132 (10 μM, 6 h of incubation). Cyclin D1 protein levels were detected through western blotting. (e) siRNA specific for Ubc9 was transiently transfected in human colon cancer cell HCT116 cells. Endogenous cyclin D1 protein levels were detected through western blotting. (f) In vivo SUMOylation and ubiquitination assay. HA-cyclin D1 was co-transfected with Ubc9 and SENP1 expression plasmids into HEK293 cells in the presence of MG132 (10 μM, 6 h of incubation). […]
(a) Cell lysates were extracted from different tissues of wt or Itch-KO mice. Endogenous cyclin D1 protein levels were detected using anti-cyclin D1 antibody by western blotting. […] Endogenous cyclin D1 protein levels were detected using anti-cyclin D1 antibody by western blotting. […] Cyclin D1 protein levels were detected using anti-HA antibody by western blotting. […] 24 h after transfection, the cell lysates were collected, the ubiquitylated cyclin D1 was detected as described in FIG. 1f. […] Cyclin D1 protein levels were detected using anti-HA antibody by western blotting. […]
Western blotting and immunoprecipitation (IP) were performed as previously described (54). The interaction between endogenous Cyclin D1 and Itch was determined in HEK293 cells. […]

cyclin D1 [2] = molecular target: T1, cyclin D1 (Homo sapiens, UniProt P24385); assay: In vivo SUMOylation and ubiquitylation assay (co-immunoprecipitation, western blotting); format: cell-based
T1 construct: endogenous in cells; host or cells: HCT-116
Description: (§1) (a, b&d) In vivo SUMOylation and ubiquitination assay. As for (a), HCT-116 cells were treated with As2O3 for 16 h (2.5 μM). Cell lysates were harvested at different time points (0, 1, 4 and 16 h). As for (b), WT or mutant cyclin D1 (K149R, T286A, DM) construct was stably transfected into HCT-116 cells. Then the cells were treated with As2O3 for 1 h. As for (d), HCT-116 cells were treated with As2O3 for 16 h (2.5 μM) in the absence or presence of MG132 (10 μM, 6 h of incubation). The SUMOylated and ubiquitylated cyclin D1 was detected as described in FIG. 1f. Cyclin D1 protein levels were detected using anti-cyclin D1 antibody (a&d) or anti-HA-antibody (b) by western blotting. (c) WT or mutant cyclin D1 (K149R, T286A, DM) construct was stably transfected into HCT-116 cells. Then the cells were treated with As2O3 for 16 h. Cyclin D1 protein levels were detected using anti-HA-antibody by western blotting. (e) TUNEL staining. WT or mutant cyclin D1 (K149R, T286A) construct was stably transfected into HCT-116 cells. Then the cells were treated with As2O3 (2.5 μM) for 16 h. The apoptotic cells were detected using Promega's DEADEND Colorimetric TUNEL System. Yellow arrows are pointing at apoptotic cells. (f) Flow cytometry. WT or mutant cyclin D1 (K149R) construct was stably transfected into HCT-116 cells. Then the cells were treated with As2O3 for 16 h (2.5 μM). Cell cycle progression was detected by flow cytometry. (As, arsenic trioxide)
(§2) SUMOylated cyclin D1 or ubiquitylated cyclin D1 was detected by co-immunoprecipitation using anti-SUMO-2/3 antibody or anti-ubiquitin antibody conjugated beads (Enzo Life Science), followed by immunoblotting with anti-cyclin D1 antibody or anti-HA antibody for cyclin D1 detection.

HCT-116 cells [3] = assay: TUNEL staining of apoptotic cells; format: cell-based, human; details: 16 h
Description: as §1
Cell apoptosis was detected using fluorescent in situ terminal deoxynucleotidyl transferase-mediated uridine 5′-triphosphate-biotin nick end labeling (TUNEL staining). Sections were first permeabilized in 0.1% Triton X-100 in phosphate-buffered saline (PBS) for 8 mins. TUNEL reaction mixture was obtained by adding terminal deoxynucleotidyl transferase to nucleotide mixture, as instructed by the manufacturer's manual (DEADEND Fluorometric TUNEL System, Promega). Sections were counterstained nuclei with 4′-6-Diamidino-2-phenylindole (DAPI).

cyclin D1 [4] = molecular target: T2, cyclin D1 (Homo sapiens, UniProt P24385, T286A); assay: In vivo SUMOylation and ubiquitylation assay (co-immunoprecipitation, western blotting); format: cell-based; details: HCT-116 cells stably expressing T286A mutant cyclin D1, treated 1 and 16 hours
T2 construct: endogenous in cells; host or cells: HCT-116
Description: as §1, §2

tumor = details: reference 52; cited from earlier work
solid and liquid tumors = details: references 48-51; cited from earlier work
cyclin D1 [5] = molecular target: T3, cyclin D1 (Homo sapiens, UniProt P24385, K149R); assay: Cyclin D1 protein levels by western blotting in HCT-116 cells; format: cell-based; details: HCT-116 cells stably expressing K149R mutant cyclin D1, treated 16 h
T3 construct: endogenous in cells; host or cells: HCT-116
Description: as §1
(§3) 48 h later, the cyclin D1 protein levels were detected through western blotting.
(§4) Western blotting and immunoprecipitation (IP) were performed as previously described (54). The interaction between endogenous Cyclin D1 and Itch was determined in HEK293 cells. Proteasome inhibitor MG132 (10 μM) (Sigma, St. Louis, Mo.) was added to the cell culture 6 hours before cells were harvested for immunoprecipitation assay. […]

cyclin D1 [6] = assay: as above; format: cell-based, human; details: HCT-116 cells, Itch siRNA, As2O3 2.5 μM, 48 h
Description: as §1, §3, §4

cyclin D1 [7] = molecular target: T4, cyclin D1 (Homo sapiens, UniProt P24385, K149R/T286A); assay: as above; format: cell-based; details: HCT-116 cells stably expressing K149R/T286A mutant cyclin D1, treated 16 h
T4 construct: endogenous in cells; host or cells: HCT-116
Description: as §1, §3, §4

HCT-116 cells [8] = assay: Cell cycle analysis by flow cytometry; format: cell-based, human; details: HCT-116 cells transfected with K149R mutant cyclin D1 compared with WT, As2O3 2.5 μM, 16 h
Description: as §1, with “WT or mutant cyclin D1 (K149R, T286A) construct was stably transfected into HCT-116 cells. Then the cells were treated with As2O3 (2.5 μM) for 16 h.” left out, “Yellow arrows are pointing at apoptotic cells. (f) Flow cytometry. WT or mutant cyclin D1 (K149R) construct was stably transfected into HCT-116 cells. Then the cells were treated with As2O3 for 16 h (2.5 μM).” left out, “(As, arsenic trioxide)” left out
FACS analysis was performed as described in the research by Santra et al (55). […] FACS samples were analyzed with a FACSCANTO Flow Cytometry System (BD Biosciences). And the data were analyzed using FlowJo 7.6 software according to the manufacturer's instruction.

T1 sequence (P24385 whole entry): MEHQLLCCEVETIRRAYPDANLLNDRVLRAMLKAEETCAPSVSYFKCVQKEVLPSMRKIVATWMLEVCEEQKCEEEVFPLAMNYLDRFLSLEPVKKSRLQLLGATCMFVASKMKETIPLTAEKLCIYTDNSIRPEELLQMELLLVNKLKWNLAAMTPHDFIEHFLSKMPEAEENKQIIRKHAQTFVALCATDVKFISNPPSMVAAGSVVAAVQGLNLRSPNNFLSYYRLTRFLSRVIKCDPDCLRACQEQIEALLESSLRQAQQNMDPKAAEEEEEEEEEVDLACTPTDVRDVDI
T2 sequence (P24385 whole entry T286A): as the sequence (P24385 whole entry) above, with T286A counted along it
T4 sequence (P24385 whole entry K149R/T286A): as the sequence (P24385 whole entry) above, with K149R, T286A counted along it
T3 sequence (P24385 whole entry K149R): as the sequence (P24385 whole entry) above, with K149R counted along it

Compound	effect on Itch-induced cyclin D1 degradation (cyclin D1 [1]; HEK293 cells co-transfected with Itch and cyclin D1, MG132 10 μM 6 h)	effect on degradation of cyclin D1 caused by Ubc9 (cyclin D1 [1]; HEK293 cells co-transfected with Ubc9 and cyclin D1, MG132 10 μM 6 h)	effect on As2O3-mediated cyclin D1 SUMOylation and polyubiquitination (cyclin D1 [2]; HCT-116 cells, As2O3 2.5 μM 16 h, MG132 10 μM 6 h)	cell apoptosis (TUNEL) (HCT-116 cells [3]; HCT-116 cells stably transfected with K149R mutant cyclin D1, As2O3 2.5 μM)	cell apoptosis (TUNEL) (HCT-116 cells [3]; HCT-116 cells stably transfected with K149R mutant cyclin D1, As2O3 2.5 μM, listed as arsenic trioxide)	cell apoptosis (TUNEL) (HCT-116 cells [3]; HCT-116 cells stably transfected with T286A cyclin D1, As2O3 2.5 μM)	cell apoptosis (TUNEL) (HCT-116 cells [3]; HCT-116 cells stably transfected with WT cyclin D1, As2O3 2.5 μM)	SUMOylation, polyubiquitination and degradation of cyclin D1 (cyclin D1 [4])	SUMOylation, polyubiquitination and degradation of cyclin D1 (cyclin D1 [2]; HCT-116 cells stably expressing WT cyclin D1, treated 1 and 16 hours)	SUMOylated- and polyubiquitinated-cyclin D1 (cyclin D1 [2]; HCT-116 cells, As2O3 2.5 μM, 1 h after treatment)	modified (SUMOylated/polyubiquitinated) cyclin D1 (cyclin D1 [2]; HCT-116 cells, As2O3 2.5 μM, after 16 h treatment)	tumor size in nude mice (tumor)	cell apoptosis in solid and liquid tumors (solid and liquid tumors)	degradation of cyclin D1 (cyclin D1 [5])	degradation of cyclin D1 under silencing of Itch expression (cyclin D1 [6])	degradation of cyclin D1 (cyclin D1 [7])	G1 arrest (HCT-116 cells [8])
CC(C)C[C@@H](C=O)NC(=O)[C@H](CC(C)C)NC(=O)[C@H](CC(C)C)NC(=O)OCc1ccccc1 [MG132] (Cbz-Leu-Leu-Leu-aldehyde)	reversed the effect of Itch on cyclin D1 degradation	reversed the degradation of cyclin D1	reversed	–	–	–	–	–	–	–	–	–	–	–	–	–	–
arsenic trioxide [As2O3]	–	–	–	much lower	significantly decreased	induced accelerated cell apoptosis	induced accelerated cell apoptosis	induced SUMOylation, polyubiquitination and degradation of cyclin D1	induced SUMOylation, polyubiquitination and degradation of cyclin D1	accumulated	disappeared	tumor shrink	induces cell apoptosis	no effect	did not abrogated degradation of cyclin D1	no effect	failed to induce efficient G1 arrest
